How the values were obtained:
TNIK/MAP4K7 = TNIK/MAP4K7 (Homo sapiens, UniProt Q9UKE5); experiment: HTRF Transcreener ADP kinase assay; type: biochemical
Experimental: (§1) In the detection step, endogenous ADP and d2-labeled ADP compete for binding an anti-ADP monoclonal antibody labeled with Eu^3+ cryptate. A ratiometric fluorescent readout is used at 665 and 620 nm. […] Assays were run in Greiner low volume plates with a final reaction volume of 10 μl. […] Data were either reported as % inhibition at a single dose or as pIC50 values derived from dose response curves (pIC50 = -log[IC50]). Kinase selectivity profiling was performed by the International Centre for Kinase Profiling, MRC Protein Phosphorylation and Ubiquitylation Unit (141 kinases; Premier Screen, http://www.kinase-screen.mrc.ac.uk), using a [γ-^33P]ATP filter binding assay ([Bain et al., 2007]). Compounds were screened at 1 μM. For key hits, pIC50 values were then determined by HTRF as above. […] Stability in mouse and human liver microsomes was determined by Cyprotex.

MINK1/MAP4K6 = MINK1/MAP4K6 (Homo sapiens, UniProt Q8N4C8); experiment: HTRF Transcreener ADP kinase assay; type: biochemical
Chain of MINK1/MAP4K6 (Q8N4C8 whole entry): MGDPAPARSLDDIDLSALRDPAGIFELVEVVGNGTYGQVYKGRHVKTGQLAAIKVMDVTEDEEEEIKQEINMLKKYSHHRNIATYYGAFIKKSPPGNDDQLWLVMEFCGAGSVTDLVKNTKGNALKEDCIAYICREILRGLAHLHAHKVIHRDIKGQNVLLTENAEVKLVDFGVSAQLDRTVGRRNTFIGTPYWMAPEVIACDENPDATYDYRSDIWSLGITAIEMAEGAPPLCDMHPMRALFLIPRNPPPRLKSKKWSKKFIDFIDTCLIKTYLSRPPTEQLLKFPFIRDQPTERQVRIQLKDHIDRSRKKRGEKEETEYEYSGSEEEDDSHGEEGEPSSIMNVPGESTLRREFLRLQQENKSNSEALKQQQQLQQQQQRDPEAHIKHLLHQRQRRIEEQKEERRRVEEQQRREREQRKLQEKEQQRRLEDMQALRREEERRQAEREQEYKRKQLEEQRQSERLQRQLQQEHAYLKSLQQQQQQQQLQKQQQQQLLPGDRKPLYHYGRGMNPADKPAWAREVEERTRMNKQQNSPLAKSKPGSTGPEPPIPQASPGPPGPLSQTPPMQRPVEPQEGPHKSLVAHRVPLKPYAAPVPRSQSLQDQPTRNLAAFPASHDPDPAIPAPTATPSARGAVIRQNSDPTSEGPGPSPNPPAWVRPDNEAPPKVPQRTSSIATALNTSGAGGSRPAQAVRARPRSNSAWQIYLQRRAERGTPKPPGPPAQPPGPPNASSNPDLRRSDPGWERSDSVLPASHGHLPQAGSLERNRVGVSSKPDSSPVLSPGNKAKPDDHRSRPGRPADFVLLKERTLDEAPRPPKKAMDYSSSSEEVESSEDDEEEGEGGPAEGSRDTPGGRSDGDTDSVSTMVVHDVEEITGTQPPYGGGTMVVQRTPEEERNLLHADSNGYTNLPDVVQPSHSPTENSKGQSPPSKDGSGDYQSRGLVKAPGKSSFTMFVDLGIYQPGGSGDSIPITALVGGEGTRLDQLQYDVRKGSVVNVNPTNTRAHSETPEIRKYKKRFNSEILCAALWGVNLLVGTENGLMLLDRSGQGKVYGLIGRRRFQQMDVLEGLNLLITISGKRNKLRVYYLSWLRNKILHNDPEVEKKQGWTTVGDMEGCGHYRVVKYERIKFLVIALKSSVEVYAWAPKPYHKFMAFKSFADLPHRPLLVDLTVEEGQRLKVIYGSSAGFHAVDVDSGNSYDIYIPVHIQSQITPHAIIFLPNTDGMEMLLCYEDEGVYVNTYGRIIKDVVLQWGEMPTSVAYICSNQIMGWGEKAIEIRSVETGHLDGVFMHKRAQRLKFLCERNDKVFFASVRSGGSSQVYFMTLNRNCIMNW
Experimental: as §1

vCor.4U hiPSC-CMs = experiment: Calcium transients (FLIPR Tetra, EarlyTox Cardiotoxicity dye); type: cell-based, human
Experimental: Calcium transients in hiPSC-CMs were assessed using FLIPR Tetra instrumentation and Early Tox Cardiotoxicity kits (Molecular Devices). vCor.4U cells were subjected to graded concentrations of menadione and the MAP4K4 inhibitors as described for the viability assays. Compound concentrations and time course are denoted in the figure and figure legend. Vehicle controls were used throughout. Cells were incubated for 2-3 hr at 37°C in 5% CO2, using 3 μL well^-1 of EarlyTox Cardiotoxicity Kit concentrate as the fluorescent calcium indicator dye. Plates were then removed from the incubator and allowed to reach room temperature. Intracellular calcium oscillations were monitored using a FLIPR Tetra system with excitation LED bank 470-495 nm and emission filter set 515-575 nm (Molecular Devices). Fluorescence intensity signals were acquired for 600 reads at 1.2 ms intervals. Beat frequency, median peak height, median peak width and total peak area were calculated and compared with the baseline control and with menadione alone. Protection of calcium cycling by DMX-4804 was confirmed in 3 independent experiments with overlapping conditions, and results are shown for a full dose-response study, analyzing 4 wells for each point.

vCor.4U cardiomyocytes = experiment: CellTiter-Glo viability after oxidative stress (H2O2 or menadione); type: cell-based, human; conditions: for protection from death signal (CellTiter-Glo): vCor.4U, 10 μM compound, up to 200 μM H2O2 or 45 μM menadione
Experimental: vCor.4U cardiomyocytes were cultured, except where noted, on white (viability) or black (FLIPR) clear-bottom 384-well plates, treated for 1 hr with […] fibronectin (Sigma-Aldrich). To minimize batch to batch variation, thawed cells first were transferred from cryo-vials into sterile 250 mL flasks containing pre-warmed vCor.4U maintenance medium, for 3-5 d. The cells were then plated at 1000 well^-1 for viability assays or 5000 cells well^-1 for FLIPR experiments, all in 40 μl well^-1 of the maintenance medium. Cells were cultured in Axiogenesis complete medium followed by incomplete medium, were subjected to oxidative stress ± test compounds on day 3, and were assayed on day 4 (Figures 4D and 4E). Alternatively, complete medium was replaced on day 2 of culture with 40 μl of DMEM high Glucose (no FCS or pyruvate), followed by removal and replacement of 20 μl every 2 d for 10 d (Figures 4A–4C).
H2O2, menadione (Sigma-Aldrich), doxorubicin (Calbiochem), and C2-ceramide (N-acetyl-D-sphingosine) were used at the indicated concentrations. MAP4K4 inhibitors were serially diluted in DMSO, transferred to an intermediate plate using assay medium as a diluting agent, and added at a final concentration of 0.1% DMSO. MAP4K4 inhibitors were added to cultured cardiomyocytes 1 hr before the cell death inducers, except where noted, and remained present for the duration of the experiment.
For cell-based dose-response experiments, MAP4K4 inhibitors were prepared in 96-well polypropylene plates as serial dilutions in DMSO of 10 mM stock solutions. To a sterile 96-well intermediate plate, 1 μl of each well was added to 99 μl of medium, the samples were mixed, and 5 μl well^-1 from the intermediate plate were transferred to the cultured cells (final concentration, 0.1% DMSO; final top concentration of inhibitor, 10 μM). Assay plates were gently centrifuged then incubated for 1 hr at 37°C. The death triggers menadione, H2O2 and doxorubicin were prepared fresh on the day of treatment at 10x the final concentrations and 5 μl well^-1 were added as appropriate. Assay plates were gently centrifuged and then incubated at 37°C for the duration of treatment.
Assay plates were removed from the incubator, allowed to reach room temperature, inoculated with 20 μl well^-1 CTG reagent (Promega), and gently agitated for 30 min. Prior to adding CTG, 2 μl well^-1 of the culture medium was removed and placed into a white 384-well low volume plate for measurement of cardiac troponin release by AlphaLISA (below). Luminescence due to ATP, proportional to cell number, was captured on a PHERAstar Plus microplate reader (BMG Labtech). Normalized values were plotted against the log concentration of death signal or inhibitor, and a 4-parameter fit was used to identify IC50 and EC50, respectively.

[1] = IV PK (plasma concentrations after intravenous administration); type: in vivo, mice; conditions: IV PK (1 mg kg^−1); for Cmax / Vd / clearance / half-life: mouse, mice, plasma
iCell cardiomyocytes = experiment: CellTiter-Glo protection from 400 μM H2O2; type: cell-based; conditions: Homo sapiens, Cardiomyocyte, read-out: EC50 in iCell cardiomyocytes (protecting hiPSC-CMs)
Experimental: iCell cardiomyocytes were thawed, transferred to Plating Medium, counted using a Vi-CELL XR cell viability analyzer (Beckman Coulter), and seeded into 24-well plates for RNA collection (60,000 cells well^-1; Greiner) or μClear half-area 96-well plates for gene silencing (10,000 cells well^-1; Greiner). Plates were coated with 10 μg ml^-1 collagen type I (BD Biosciences). Cells were cultured in iCell Cardiomyocytes Plating Medium for 2 d and in Maintenance Medium thereafter. For compound dose-response comparisons, the cells were deposited in Plating Medium at 10,000 cells well^-1 in 0.1% (w/v) gelatin-coated 384-well white Greiner plates and were cultured as above for 8 d before treatment.
For cell-based dose-response experiments, MAP4K4 inhibitors were prepared in 96-well polypropylene plates as serial dilutions in DMSO of 10 mM stock solutions. […]
Assay plates were removed from the incubator, allowed to reach room temperature, inoculated with 20 μl well^-1 CTG reagent (Promega), and gently agitated for 30 min. […] Luminescence due to ATP, proportional to cell number, was captured on a PHERAstar Plus microplate reader (BMG Labtech). […]

141 human kinases = experiment: Kinase selectivity profiling, Dundee Premier Screen, whole panel; type: biochemical; conditions: number of kinases; compounds at 1 μM
Experimental: Kinase selectivity profiling was performed by the International Centre for Kinase Profiling, MRC Protein Phosphorylation and Ubiquitylation Unit (141 kinases; Premier Screen, http://www.kinase-screen.mrc.ac.uk), using a [γ-^33P]ATP filter binding assay ([Bain et al., 2007]). Compounds were screened at 1 μM. For key hits, pIC50 values were then determined by HTRF as above. More complete kinome profiling was performed by Reaction Biology (376 kinases). Stability in mouse and human liver microsomes was determined by Cyprotex.

Chain of TNIK/MAP4K7 (Q9UKE5 whole entry): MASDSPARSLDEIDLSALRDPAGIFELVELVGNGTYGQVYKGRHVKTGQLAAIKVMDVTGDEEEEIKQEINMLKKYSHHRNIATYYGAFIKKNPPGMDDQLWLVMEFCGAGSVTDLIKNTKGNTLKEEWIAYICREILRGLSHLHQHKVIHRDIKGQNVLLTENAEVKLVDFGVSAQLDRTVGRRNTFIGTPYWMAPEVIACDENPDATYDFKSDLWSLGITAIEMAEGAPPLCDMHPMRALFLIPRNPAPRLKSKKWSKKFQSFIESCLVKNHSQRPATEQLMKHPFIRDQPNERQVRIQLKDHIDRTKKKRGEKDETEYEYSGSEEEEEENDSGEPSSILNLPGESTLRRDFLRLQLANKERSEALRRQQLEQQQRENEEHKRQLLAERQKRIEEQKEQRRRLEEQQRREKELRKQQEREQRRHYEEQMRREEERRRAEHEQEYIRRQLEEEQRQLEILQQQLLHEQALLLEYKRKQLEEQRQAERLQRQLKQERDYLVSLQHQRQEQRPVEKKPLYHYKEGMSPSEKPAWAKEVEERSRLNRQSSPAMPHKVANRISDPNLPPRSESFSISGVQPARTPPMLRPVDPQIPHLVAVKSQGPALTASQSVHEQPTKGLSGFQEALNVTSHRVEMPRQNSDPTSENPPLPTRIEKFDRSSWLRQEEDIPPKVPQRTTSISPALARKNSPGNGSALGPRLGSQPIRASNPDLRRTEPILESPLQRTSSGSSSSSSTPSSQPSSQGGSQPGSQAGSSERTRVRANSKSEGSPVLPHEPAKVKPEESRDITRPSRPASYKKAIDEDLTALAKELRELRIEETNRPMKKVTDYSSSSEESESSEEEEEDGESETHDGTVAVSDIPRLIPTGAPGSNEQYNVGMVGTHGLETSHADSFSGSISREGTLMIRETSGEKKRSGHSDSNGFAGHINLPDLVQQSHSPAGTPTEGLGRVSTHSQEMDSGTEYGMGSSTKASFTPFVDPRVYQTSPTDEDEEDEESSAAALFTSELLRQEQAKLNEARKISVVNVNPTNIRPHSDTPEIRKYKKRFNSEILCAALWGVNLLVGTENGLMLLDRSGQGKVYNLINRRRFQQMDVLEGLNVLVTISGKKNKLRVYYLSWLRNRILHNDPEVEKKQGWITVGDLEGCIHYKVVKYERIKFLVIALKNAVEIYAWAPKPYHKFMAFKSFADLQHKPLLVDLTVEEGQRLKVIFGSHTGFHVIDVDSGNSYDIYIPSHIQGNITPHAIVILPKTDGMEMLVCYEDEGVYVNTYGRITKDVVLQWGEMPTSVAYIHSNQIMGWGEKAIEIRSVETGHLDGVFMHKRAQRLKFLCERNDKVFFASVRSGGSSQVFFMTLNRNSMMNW

Row | SMILES | IC50 (TNIK/MAP4K7) [µM] | IC50 (MINK1/MAP4K6) [µM] | EC50 (vCor.4U hiPSC-CMs; Homo sapiens, calcium cycling, menadione, vCor.4U, read-out: concentration preserving ∼50% of peak area and peak height) [µM] | duration for which protection of calcium cycling was maintained (vCor.4U hiPSC-CMs; menadione present throughout) | spontaneous calcium cycling after hypoxia-reoxygenation (vCor.4U hiPSC-CMs; vCor.4U, 8 hr after hypoxia-reoxygenation, 10 μM) | effect on baseline calcium cycling (vCor.4U hiPSC-CMs; vCor.4U, no menadione) | protection if given 1 h after oxidative stress (vCor.4U cardiomyocytes; 400 μM H2O2, CellTiter-Glo) | protection from death signal (CellTiter-Glo) (vCor.4U cardiomyocytes) | Cmax [1] [µM] | Vd [1] [L/kg] | clearance [1] [L/h/kg] | half-life [1] [min] | Cl, DMX-5804 versus F1386-0303 ([1]; ratio) | Cmax, DMX-5804 versus F1386-0303 ([1]; ratio) | Vd, DMX-5804 versus F1386-0303 ([1]; ratio) | t1/2, DMX-5804 versus F1386-0303 ([1]; ratio) | EC50 (iCell cardiomyocytes) [µM] | off-target effects among 141 human kinases (141 human kinases)
1 | COCCOc1ccc(-c2cn(-c3ccccc3)c3nc[nH]c(=O)c23)cc1 [DMX-5804, 5-[4-(2-methoxy-ethoxy)-phenyl]-7-phenyl-3,7-dihydro-pyrrolo[2,3-d]pyrimidin-4-one] | 0.011 | 0.00661 | 0.5 to 2 | up to 96 h | protection was conferred | no effect | partial protection | substantiated | 1.59 | 1.22 | 2.5 | 36 | 0.47 | 0.49 | 1.16 | 6.00 | 0.5 | –
2 | Oc1ncnc2c1c(-c1ccccc1)cn2-c1ccccc1 [F1386-0303, 5,7-diphenyl-7H-pyrrolo[2,3-d]pyrimidin-4-ol] | 0.0933 | 0.038 | – | – | – | – | – | virtually complete | 3.26 | 1.05 | 5.33 | 6 | – | – | – | – | 5 | 5
